# “And” between values parts separate entries of the source, which are not always exact repeats. Equal entries are not always repeated. Where two headings read alike, the source gives them in different places.
# Assays:
# [1] = tested on: glyphosate resistant Conyza canadensis (L.) (ERICA), horseweed; assay: Postemergence herbicide evaluation, growth of Conyza canadensis (ERICA); type: in vivo; details: Erigeron canadensis, post-emergence, percent reduction in plant size vs untreated control, read-out: Ave. ERICA; for pest or weed control at 280 g/ha: 280 g ae/ha; for pest or weed control at 560 g/ha: 560 g ae/ha
# [2] = tested on: weeds ABUTH, AMATA, AMBEL, CHEAL, ERICA; assay: Postemergence herbicide evaluation, overall average % weed control across ABUTH, AMATA, AMBEL, CHEAL and ERICA; type: in vivo; details: post-emergence, average over five weeds, read-out: Overall Ave % Weed Control; for pest or weed control at 280 g/ha: 280 g ae/ha; for pest or weed control at 560 g/ha: 560 g ae/ha
# [3] = tested on: Amaranthus rudis (AMATA), tall water hemp; assay: Postemergence herbicide evaluation, growth of Amaranthus rudis (AMATA); type: in vivo; details: Amaranthus tuberculatus, post-emergence, percent reduction in plant size vs untreated control, read-out: Ave. AMATA; for pest or weed control at 280 g/ha: 280 g ae/ha; for pest or weed control at 560 g/ha: 560 g ae/ha
# [4] = tested on: Ambrosia artemisiifolia (AMBEL), common ragweed; assay: Postemergence herbicide evaluation, growth of Ambrosia artemisiifolia (AMBEL); type: in vivo; details: Ambrosia artemisiifolia, post-emergence, percent reduction in plant size vs untreated control, read-out: AVE. AMBEL; for pest or weed control at 280 g/ha: 280 g ae/ha; for pest or weed control at 560 g/ha: 560 g ae/ha
# [5] = tested on: Chenopodium album (CHEAL), common lambsquarters; assay: Postemergence herbicide evaluation, growth of Chenopodium album (CHEAL); type: in vivo; details: Chenopodium album, post-emergence, percent reduction in plant size vs untreated control, read-out: Ave. CHEAL; for pest or weed control at 280 g/ha: 280 g ae/ha; for pest or weed control at 560 g/ha: 560 g ae/ha
# [6] = tested on: Abutilon theophrasti (ABUTH), velvetleaf; assay: Postemergence herbicide evaluation, growth of Abutilon theophrasti (ABUTH); type: in vivo; details: Abutilon theophrasti, post-emergence, percent reduction in plant size vs untreated control, read-out: AVE. ABUTH; for pest or weed control at 280 g/ha: 280 g ae/ha; for pest or weed control at 560 g/ha: 560 g ae/ha
# [7] = Volatility of compounds measured by thermogravimetric analysis (TGA); type: physicochemical
# [8] = value marked *: decomposition of the material was observed
Structure (SMILES),"pest or weed control at 280 g/ha ([1]; 168 h, 7 DAA) [%]","pest or weed control at 560 g/ha ([1]; 168 h, 7 DAA) [%]","pest or weed control at 280 g/ha ([1]; 336 h, 14 DAA) [%]","pest or weed control at 560 g/ha ([1]; 336 h, 14 DAA) [%]","pest or weed control at 280 g/ha ([1]; 504 h, 21 DAA) [%]","pest or weed control at 560 g/ha ([1]; 504 h, 21 DAA) [%]","pest or weed control at 280 g/ha ([2]; 168 h, 7 DAA) [%]","pest or weed control at 560 g/ha ([2]; 168 h, 7 DAA) [%]","pest or weed control at 280 g/ha ([2]; 336 h, 14 DAA) [%]","pest or weed control at 560 g/ha ([2]; 336 h, 14 DAA) [%]","pest or weed control at 280 g/ha ([2]; 504 h, 21 DAA) [%]","pest or weed control at 560 g/ha ([2]; 504 h, 21 DAA) [%]","pest or weed control at 280 g/ha ([3]; 168 h, 7 DAA) [%]","pest or weed control at 560 g/ha ([3]; 168 h, 7 DAA) [%]","pest or weed control at 280 g/ha ([3]; 336 h, 14 DAA) [%]","pest or weed control at 560 g/ha ([3]; 336 h, 14 DAA) [%]","pest or weed control at 280 g/ha ([3]; 504 h, 21 DAA) [%]","pest or weed control at 560 g/ha ([3]; 504 h, 21 DAA) [%]","pest or weed control at 280 g/ha ([4]; 168 h, 7 DAA) [%]","pest or weed control at 560 g/ha ([4]; 168 h, 7 DAA) [%]",also measured
O=C(COc1ccc(Cl)cc1Cl)ONC(=O)C1CCCC1 [Compound A20],75,80,98.5,94.5,100,100,75.3,84.5,93.1,92.4,97.5,95.7,91.5,92.5,90,90,100,82.5,72.5,85,"pest or weed control at 280 g/ha ([4]; 336 h, 14 DAA): 100%; pest or weed control at 560 g/ha ([4]; 336 h, 14 DAA): 85%; pest or weed control at 280 g/ha ([4]; 504 h, 21 DAA): 100%; pest or weed control at 560 g/ha ([4]; 504 h, 21 DAA): 100%; pest or weed control at 280 g/ha ([5]; 168 h, 7 DAA): 77.5%; pest or weed control at 560 g/ha ([5]; 168 h, 7 DAA): 77.5%; pest or weed control at 280 g/ha ([5]; 336 h, 14 DAA): 98%; pest or weed control at 560 g/ha ([5]; 336 h, 14 DAA): 92.5%; pest or weed control at 280 g/ha ([5]; 504 h, 21 DAA): 95%; pest or weed control at 560 g/ha ([5]; 504 h, 21 DAA): 96%; pest or weed control at 280 g/ha ([6]; 168 h, 7 DAA): 60%; pest or weed control at 560 g/ha ([6]; 168 h, 7 DAA): 87.5%; pest or weed control at 280 g/ha ([6]; 336 h, 14 DAA): 79%; pest or weed control at 560 g/ha ([6]; 336 h, 14 DAA): 100%; pest or weed control at 280 g/ha ([6]; 504 h, 21 DAA): 92.5%; pest or weed control at 560 g/ha ([6]; 504 h, 21 DAA): 100%; TGA Data (rate of weight loss, volatility) [7]: 1.83 µg/min; TGA Data (rate of weight loss, volatility) [7, 8]: 2.946* μg/min and 1.83* μg/min"
CCN(CC)OC(=O)COc1ccc(Cl)cc1Cl [Compound A21],85,82.5,92,94,97.5,100,74.5,81.5,84.4,94.1,93,99.7,80,85,90,87.5,80,100,70,70,"pest or weed control at 280 g/ha ([4]; 336 h, 14 DAA): 80%; pest or weed control at 560 g/ha ([4]; 336 h, 14 DAA): 98%; pest or weed control at 280 g/ha ([4]; 504 h, 21 DAA): 100%; pest or weed control at 560 g/ha ([4]; 504 h, 21 DAA): 100%; pest or weed control at 280 g/ha ([5]; 168 h, 7 DAA): 77.5%; pest or weed control at 560 g/ha ([5]; 168 h, 7 DAA): 82.5%; pest or weed control at 280 g/ha ([5]; 336 h, 14 DAA): 92.5%; pest or weed control at 560 g/ha ([5]; 336 h, 14 DAA): 96.5%; pest or weed control at 280 g/ha ([5]; 504 h, 21 DAA): 97.5%; pest or weed control at 560 g/ha ([5]; 504 h, 21 DAA): 99%; pest or weed control at 280 g/ha ([6]; 168 h, 7 DAA): 60%; pest or weed control at 560 g/ha ([6]; 168 h, 7 DAA): 87.5%; pest or weed control at 280 g/ha ([6]; 336 h, 14 DAA): 67.5%; pest or weed control at 560 g/ha ([6]; 336 h, 14 DAA): 94.5%; pest or weed control at 280 g/ha ([6]; 504 h, 21 DAA): 90%; pest or weed control at 560 g/ha ([6]; 504 h, 21 DAA): 99.5%; TGA Data (rate of weight loss, volatility) [7, 8]: 1.352* μg/min"
C/C(=N\OC(=O)COc1ccc(Cl)cc1Cl)C(=O)c1ccccc1 [Compound A22],87.5,77.5,100,100,99,99.5,74.5,79.5,87,96.5,89.7,96.8,70,87.5,87.5,92.5,65,87.5,77.5,82.5,"pest or weed control at 280 g/ha ([4]; 336 h, 14 DAA): 67.5%; pest or weed control at 560 g/ha ([4]; 336 h, 14 DAA): 92.5%; pest or weed control at 280 g/ha ([4]; 504 h, 21 DAA): 100%; pest or weed control at 560 g/ha ([4]; 504 h, 21 DAA): 100%; pest or weed control at 280 g/ha ([5]; 168 h, 7 DAA): 75%; pest or weed control at 560 g/ha ([5]; 168 h, 7 DAA): 80%; pest or weed control at 280 g/ha ([5]; 336 h, 14 DAA): 97.5%; pest or weed control at 560 g/ha ([5]; 336 h, 14 DAA): 99%; pest or weed control at 280 g/ha ([5]; 504 h, 21 DAA): 87.5%; pest or weed control at 560 g/ha ([5]; 504 h, 21 DAA): 97.5%; pest or weed control at 280 g/ha ([6]; 168 h, 7 DAA): 62.5%; pest or weed control at 560 g/ha ([6]; 168 h, 7 DAA): 70%; pest or weed control at 280 g/ha ([6]; 336 h, 14 DAA): 82.5%; pest or weed control at 560 g/ha ([6]; 336 h, 14 DAA): 98.5%; pest or weed control at 280 g/ha ([6]; 504 h, 21 DAA): 97%; pest or weed control at 560 g/ha ([6]; 504 h, 21 DAA): 99.5%; TGA Data (rate of weight loss, volatility) [7]: 0.42 µg/min"
O=C(COc1cc(Cl)cc(Cl)c1)OCCCOC(=O)COc1ccc(Cl)cc1Cl [Compound B7],82.5,85,70,91.5,99,98.5,61,68,65.3,74.1,70.3,76.2,57.5,67.5,85,85,70,52.5,62.5,72.5,"pest or weed control at 280 g/ha ([4]; 336 h, 14 DAA): 57.5%; pest or weed control at 560 g/ha ([4]; 336 h, 14 DAA): 67.5%; pest or weed control at 280 g/ha ([4]; 504 h, 21 DAA): 77.5%; pest or weed control at 560 g/ha ([4]; 504 h, 21 DAA): 100%; pest or weed control at 280 g/ha ([5]; 168 h, 7 DAA): 82.5%; pest or weed control at 560 g/ha ([5]; 168 h, 7 DAA): 77.5%; pest or weed control at 280 g/ha ([5]; 336 h, 14 DAA): 96.5%; pest or weed control at 560 g/ha ([5]; 336 h, 14 DAA): 96.5%; pest or weed control at 280 g/ha ([5]; 504 h, 21 DAA): 90%; pest or weed control at 560 g/ha ([5]; 504 h, 21 DAA): 87.5%; pest or weed control at 280 g/ha ([6]; 168 h, 7 DAA): 20%; pest or weed control at 560 g/ha ([6]; 168 h, 7 DAA): 37.5%; pest or weed control at 280 g/ha ([6]; 336 h, 14 DAA): 17.5%; pest or weed control at 560 g/ha ([6]; 336 h, 14 DAA): 30%; pest or weed control at 280 g/ha ([6]; 504 h, 21 DAA): 15%; pest or weed control at 560 g/ha ([6]; 504 h, 21 DAA): 42.5%; TGA Data (rate of weight loss, volatility) [7]: 0.03572 µg/min"
